Laboratory results: patent publication US20100249019A1, “USE OF A PEPTIDE AS A THERAPEUTIC AGENT” (priority 2007, published 2010)
No end group written: not given here.

Columns and labels:
[1] = system: hepatitis B virus (HBV) ayw strain; experiment: HBV experimental assay system (HepG2-2.2.15, TaqMan PCR of HBV DNA); type: cell-based; conditions: 10 micrograms per ml; six days; HBV DNA vs virus control
murine spleen cells = experiment: Th1/Th2 cytokine profiling assay (Ovalbumin-restimulated spleen cells, CBA kit); type: cell-based, Balb/c mice; conditions: 10 micrograms per ml; 72 hours
Source text: The Balb/c mice (originated in 1923, it is a popular strain and is used in many different research disciplines. Also classified as an inbred from the production of 20 or more successive brother-sister matings, the Balb/c mouse is albino and small in size) were immunized on Days 1, 15, and 29 with Ovalbumin (Ovalbumin is the main protein found in egg white, commonly used to stimulate an immunological reaction in test animals) in PBS (5 micrograms/injection). On day 50, spleens of the mice were harvested (3 weeks after last boost with Ovalbumin). […] Thereafter, additional Ovalbumin was added to the cells at 10 micrograms/ml for in vitro restimulation of the cells. 72 hours later, cell supernatants were harvested and assayed using the Becton Dickinson Mouse Th1/Th2 Cytokine CBA Kit.

RAW 264.7 cells = experiment: Phagocytosis assay (Fluorescein-labeled Escherichia coli, flow cytometry); conditions: 10 micrograms per ml; 30 min preincubation, 60 min ingestion
HUVEC = experiment: Endothelial tube formation assay; type: cell-based, human; conditions: 10 micrograms per ml; 20 hours
Procedure: The endothelial tube formation assay is based on the ability of endothelial cells to form three-dimensional capillary-like tubular structures when cultured on a gel of basement membrane extract. The endothelial tube formation assay represents a powerful model for studying inhibition and induction of angiogenesis. Pre-labeled HUVEC with Calcein AM were seeded in a 96-well culture plate coated with extracellular metrix (Chemicon international Cat. ECM625) and treated with test peptides—10 micrograms per ml—in full growth medium. Positive control wes vehicle only. The endothelial cells were allowed to form tubes foe 20 hours and were then examined under an inverted fluorescent microscope. Duplicate wells for each treatment were photographed and quantitatevily analyzed for an average tubule length using image analysis software ImageProPlus. Raw data were expressed as average tubule lengths in pixels±standard deviation. Statistic p values were computed using the Student's t-test.

HCMV strain AD169 = experiment: HCMV plaque formation assay in MRC-5 cells; conditions: 10 micrograms per ml, 7-10 days
[2] = system: Primary Human endothelial cells (HUVEC); experiment: Endothelial cell migration assay; type: cell-based; conditions: 10 micrograms per ml; 22 hours

Val-Pro-Leu-Pro-Ala-Gly-Gly-Gly-Thr-Val-Leu-Thr-Lys-Met-Tyr-Pro-Arg-Gly-Asn-His-Trp-Ala-Val-Gly-His-Leu-Met-NH2 (VPLPAGGGTVLTKMYPRGNHWAVGHLM-NH2) [Peptide 2, Gastrin Releasing Peptide; GRP, commercially available known peptide]
inhibition of HBV replication on tested liver cells [1]: 30.6% | change of the production of IFN-γ (murine spleen cells): did not significantly change | change of the production of IL-2 (murine spleen cells): did not significantly change | change of the production of IL-4 (murine spleen cells): did not significantly change | change of the production of TNF-alpha (murine spleen cells): did not significantly change | decrease of the production of IL-5 (murine spleen cells): 34.0% | induction of the production of IL-2 (murine spleen cells): 67.3% | induction of phagocytosis as compared to control (RAW 264.7 cells): 42.9% | inhibition of the tube formation of human endothelial cells (HUVEC): do not inhibit | inhibition of HCMV plaque formation as compared to the virus control (HCMV strain AD169): 4.0% | inhibition of the migration of human endothelial cells [2]: 26%
